Format in all cases: in vivo
Assay [1] deals with barnyardgrass (Echinochloa crus-galli). The experiment in a line: Test A preemergence, barnyardgrass. Conditions: Echinochloa crus-galli, pre-emergence, 240 h, Preemergence; for pest or weed control at 125 g/ha: 125 g ai/ha; for pest or weed control at 500 g/ha: 500 g ai/ha. The procedure, abridged: (§1)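 Directed soil spray at planting gave the preemergence treatment, while foliar application to one- to two-leaf seedlings (2–10 cm) gave the postemergence one; pots held a loam and sand mixture and chemicals were carried in a non-phytotoxic solvent with surfactant.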

The test system of a further assay is kochia (Bassia scoparia). The experiment in a line: Test A postemergence, kochia. As to conditions: Bassia scoparia, post-emergence, 240 h, Postemergence, 0 to 100 scale (0 no effect, 100 complete control); for pest or weed control at 125 g/ha: 125 g ai/ha; for pest or weed control at 500 g/ha: 500 g ai/ha. The essentials:
as §1

Assay [2] concerns ragweed (common ragweed, Ambrosia artemisiifolia). Put plainly: Test A postemergence, ragweed. Conditions: Ambrosia artemisiifolia, post-emergence, 240 h, Postemergence, 0 to 100 scale (0 no effect, 100 complete control); for pest or weed control at 125 g/ha: 125 g ai/ha; for pest or weed control at 500 g/ha: 500 g ai/ha. The essentials: as §1
The test system of assay [3] is Foxtail, Giant (giant foxtail, Setaria faberi). Put plainly: Test A postemergence, Foxtail, Giant. As to conditions: Setaria faberi, post-emergence, 240 h, Postemergence, 0 to 100 scale (0 no effect, 100 complete control); for pest or weed control at 125 g/ha: 125 g ai/ha; for pest or weed control at 500 g/ha: 500 g ai/ha. The procedure, abridged: as §1
Setting [4] is: visual injury on 0 to 100 scale (0 no effect, 100 complete control), approximately 10 days, read-out: Barnyardgrass plant response rating.
Setting [5] is: 0 to 100 scale (0 no effect, 100 complete control), read-out: Plant response rating, Barnyardgrass.
Setting [6] is: visual injury approx. 10 days, read-out: Plant response rating, Kochia.
[7] abbreviates: visual injury vs untreated controls after approx. 10 days, read-out: Kochia plant response rating.
[8] abbreviates: visual injury approx. 10 days, read-out: Plant response rating, Ragweed.
Setting [9] is: visual injury vs untreated controls after approx. 10 days, read-out: Ragweed plant response rating.
[10] abbreviates: visual injury approx. 10 days, read-out: Plant response rating, Foxtail, Giant.
Setting [11] is: visual injury vs untreated controls after approx. 10 days, read-out: Foxtail, Giant plant response rating.
The mark [12] stands for this setting: read-out: Plant response rating, Ragweed.
Setting [13] is: read-out: Plant response rating, Kochia.
Setting [14] is: read-out: Plant response rating, Foxtail, Giant.
The mark [15] stands for this setting: visual injury, 0 to 100 scale (0 no effect, 100 complete control), approx. 10 days, read-out: Plant response rating, Barnyardgrass.

The text below walks through data of patent US20230278972A1, “SUBSTITUTED HALOALKYL SULFONANILIDE HERBICIDES” (FMC Corporation, priority 2020, published 2023).

Where two headings read alike, the source gives them in different places.

With `Cc1cc(C)c(C2=NOC3COCCC23)cc1NS(=O)(=O)C(F)(F)F` (stereo not drawn) [Compound 121, N-[2,4-Dimethyl-5-(3a,4,7,7a-tetrahydro-5H-pyrano[4,3-d]isoxazol-3-yl)phenyl]-1,1,1-trifluoromethanesulfonamide], the pest or weed control at 125 g/ha in assay [1] (setting [4]) came out at 90%; in the assay with kochia (Bassia scoparia) (setting [6]) it was 50%; in assay [2] (setting [8]), 90%; in assay [3] (setting [10]), 50%. Moreover, the pest or weed control at 500 g/ha in assay [1] (setting [5]) worked out at 90%; in the assay with kochia (Bassia scoparia) (setting [7]) it was 80%; in assay [2] (setting [9]), 90%; in assay [3] (setting [11]), 90%.
Regarding `Cc1c(NS(=O)(=O)C(F)(F)F)cc(C(=O)N(C)C)c(C)c1F` [Compound 128, 3-Fluoro-N,N,2,4-tetramethyl-5-[[(trifluoromethyl)sulfonyl]amino]benzamide], the pest or weed control at 125 g/ha turned out to be 100% in assay [1] (setting [4]), 30% in the assay with kochia (Bassia scoparia) (setting [6]), 80% in assay [2] (setting [8]) and 10% in assay [3] (setting [10]). Besides, the pest or weed control at 500 g/ha was 100% in assay [1] (setting [5]), 70% in the assay with kochia (Bassia scoparia) (setting [7]), 90% in assay [2] (setting [9]) and 50% in assay [3] (setting [11]).
As for `Cc1cc(C)c(N(COC(=O)C(C)(C)C)S(=O)(=O)C(F)(F)F)cc1C1=NOC2(CCCC2)C1` [Compound 140, [[2,4-Dimethyl-5-(1-oxa-2-azaspiro[4.4]non-2-en-3-yl)phenyl][(trifluoromethyl)sulfonyl]amino]methyl 2,2-dimethylpropanoate], the pest or weed control at 125 g/ha in assay [1] (setting [4]) came out at 40%; with kochia (Bassia scoparia) (setting [6]) it was 10%; in assay [2] (setting [12]) it was 0%; in assay [3] (setting [10]), 30%. For the same compound, the pest or weed control at 500 g/ha in assay [1] (setting [5]) was 100%; in the assay with kochia (Bassia scoparia) (setting [7]) it was 60%; in assay [2] (setting [9]), 50%; in assay [3] (setting [11]), 90%.
Consider `Cc1cc(C)c(N(COC(=O)C(C)(C)C)S(=O)(=O)C(F)(F)F)cc1C1=NOC2(CCCCC2)C1` [Compound 159, [[2,4-Dimethyl-5-(1-oxa-2-azaspiro[4.5]dec-2-en-3-yl)phenyl][(trifluoromethyl)sulfonyl]amino]methyl 2,2-dimethylpropanoate], for which the pest or weed control at 125 g/ha in assay [1] (setting [4]) was found to be 40%; with kochia (Bassia scoparia) (setting [13]), 20%; in assay [2] (setting [12]), 60%; in assay [3] (setting [14]), 0%. Moreover, the pest or weed control at 500 g/ha is 60% in assay [1] (setting [5]), 40% with kochia (Bassia scoparia) (setting [7]), 90% in assay [2] (setting [9]) and 30% in assay [3] (setting [11]).
With `Cc1c(NS(=O)(=O)C(F)(F)F)cc(C(=O)N2CCOCC2)c(C)c1F` [Compound 190, 1,1,1-Trifluoro-N-[3-fluoro-2,4-dimethyl-5-(4-morpholinylcarbonyl)phenyl]methanesulfonamide], the pest or weed control at 125 g/ha in assay [1] (setting [15]) stood at 90%; in the assay on kochia (Bassia scoparia) (setting [13]), 30%; in assay [2] (setting [12]), 80%; in assay [3] (setting [14]) it was 20%. The pest or weed control at 500 g/ha was 100% in assay [1] (setting [5]), 70% in the assay on kochia (Bassia scoparia) (setting [7]), 90% in assay [2] (setting [9]) and 80% in assay [3] (setting [11]).
For `Cc1cc(C)c(C2=NOC3(CCCCC3)C2)cc1NS(=O)(=O)C(F)(F)F` [Compound 197, N-[2,4-Dimethyl-5-(1-oxa-2-azaspiro[4.5]dec-2-en-3-yl)phenyl]-1,1,1-trifluoromethanesulfonamide], the pest or weed control at 125 g/ha was determined as 90% in assay [1] (setting [15]), 50% in the assay on kochia (Bassia scoparia) (setting [13]), 80% in assay [2] (setting [12]) and 80% in assay [3] (setting [14]). Further, the pest or weed control at 500 g/ha in assay [1] (setting [5]) came out at 100%; in the assay on kochia (Bassia scoparia) (setting [7]), 80%; in assay [2] (setting [9]) it was 80%; in assay [3] (setting [11]) it was 90%.
`Cc1cc(C)c(C2=NOC3(CCCC3)C2)cc1NS(=O)(=O)C(F)(F)F` [Compound 207, N-[2,4-Dimethyl-5-(1-oxa-2-azaspiro[4.4]non-2-en-3-yl)phenyl]-1,1,1-trifluoromethanesulfonamide]: the pest or weed control at 125 g/ha in assay [1] (setting [15]) stood at 90%; with kochia (Bassia scoparia) (setting [13]), 20%; in assay [2] (setting [12]), 20%; in assay [3] (setting [14]) it was 50%. For the same compound, the pest or weed control at 500 g/ha in assay [1] (setting [5]) was determined as 90%; with kochia (Bassia scoparia) (setting [7]) it was 60%; in assay [2] (setting [9]) it was 70%; in assay [3] (setting [11]) it was 90%.
With `Cc1cc(Cl)c(NS(=O)(=O)C(F)(F)F)cc1C(=O)N1CCC(F)(F)CC1` [Compound 229, N-[2-Chloro-5-[(4,4-difluoro-1-piperidinyl)carbonyl]-4-methylphenyl]-1,1,1-trifluoromethanesulfonamide], the pest or weed control at 125 g/ha in assay [1] (setting [15]) amounted to 70%; with kochia (Bassia scoparia) (setting [13]) it was 60%; in assay [2] (setting [12]) it was 90%; in assay [3] (setting [14]), 50%. The pest or weed control at 500 g/ha (in assay [1] (setting [5]); in the assay with kochia (Bassia scoparia) (setting [7]); in assay [2] (setting [9]); in assay [3] (setting [11])) was 90% in each case.
With `Cc1cc(C)c(C(=O)N2CCC(F)(F)CC2)cc1NS(=O)(=O)C(F)(F)F` [Compound 241, N-[5-[(4,4-Difluoro-1-piperidinyl)carbonyl]-2,4-dimethylphenyl]-1,1,1-trifluoromethanesulfonamide], the pest or weed control at 125 g/ha in assay [1] (setting [15]) worked out at 100%; with kochia (Bassia scoparia) (setting [13]), 60%; in assay [2] (setting [12]), 40%; in assay [3] (setting [14]), 0%. Also, the pest or weed control at 500 g/ha in assay [1] (setting [4]) was determined as 100%; in the assay on kochia (Bassia scoparia) (setting [6]), 90%; in assay [2] (setting [8]), 80%; in assay [3] (setting [10]), 30%.
